35 compounds from ChEMBL document CHEMBL4251597, “Discovery and evolution of aloperine derivatives as a new family of HCV inhibitors with novel mechanism” (Eur J Med Chem, 2018) can be followed below.

Structures are written as SMILES. Active and inactive are the calls of the source. No cut-off for these calls is given here.

The test system of data set [1] is Hepatitis C virus. In words: Antiviral activity against HCV J6/JFH/JC-1 infected in human Huh7.5 cells assessed as inhibition of viral RNA replication after 72 hrs by qRT-PCR method. Format: functional, organism-based, Hepacivirus hominis. The settings on record: J6/JFH/JC-1, Huh7.5, 72 h. For orientation: Real-time PCR tracks product formation cycle by cycle.
The nature of data set [2]: Cytotoxicity against human Huh7.5 cells after 72 hrs by MTT assay. The data set is classed as cell-based. For orientation: Formazan colour is commonly taken as a measure of viable cells.
Data set [3] in a line: Selectivity index, ratio of CC50 for human Huh7.5 cells to EC50 for HCV J6/JFH/JC-1. Format: toxicity. The following applies: read-out: Ratio CC50/EC50.
A short description of data set [4]: Cmax in mouse at 25 mg/kg, po after 0.25 to 6 hrs. The data set is classed as ADME, organism-based. Also on record: dose 25 mg/kg, route oral. The following applies: in vivo.
A short description of data set [5]: Tmax in mouse at 25 mg/kg, po after 0.25 to 6 hrs. The data set is classed as ADME, organism-based. The following applies: in vivo.
Data set [6] is described as follows: MRT in mouse at 25 mg/kg, po after 0.25 to 6 hrs. Format: ADME, organism-based. The following applies: in vivo.
A short description of data set [7]: Half life in mouse at 25 mg/kg, po after 0.25 to 6 hrs. The data set is classed as ADME, organism-based. The following applies: in vivo.
Data set [8] in a line: AUC (0 to t) in mouse at 25 mg/kg, po after 0.25 to 6 hrs. The data set is classed as ADME, organism-based. The following applies: in vivo. Also on record: time upper 6 hr, time lower 0.25 hr, dose 25 mg/kg, route oral.
The nature of data set [9]: Acute toxicity in po dosed Kunming mouse measured for 7 days. Format: organism-based. The settings on record: in vivo.
Data set [10] deals with Hepatitis C virus. In words: Antiviral activity against HCV J6/JFH/JC-1 infected in human Huh7.5 cells harboring NS3/4A D168V mutant assessed as inhibition of viral core protein levels at 0.01 to 1 uM treated with fresh media containing compound every 2 days by Western blot method. The settings on record: Hepacivirus hominis. Format: functional, organism-based.
The test system of data set [11] is Hepatitis C virus. In words: Antiviral activity against HCV J6/JFH/JC-1 infected in human Huh7.5 cells assessed as inhibition of NS3/4A D168V mutant levels at 0.01 to 1 uM treated with fresh media containing compound every 2 days by Western blot method. The data set is classed as functional, organism-based. The following applies: Hepacivirus hominis. A general note: A western blot detects proteins with antibodies after separation by electrophoresis.

For the compound `N#Cc1ccccc1CN1CCCC2=C[C@H]3C[C@H](CN4CCCC[C@H]34)[C@@H]21`, the concentration for a half-maximal effect (EC50) – broadly, the concentration needed to bring the measured effect to its halfway point – in data set [1] was determined as 1.95 µM. Also, the midpoint of cytotoxicity in data set [2], the CC50 at 72 h, lay at 18.8 µM. For the same compound, the selectivity ratio in data set [3] amounted to 9.64.
On the same counts, the results for `O=S(=O)(c1ccc2c(c1)CCO2)N1CCCC2=C[C@H]3C[C@H](CN4CCCC[C@H]34)[C@@H]21` are 8.65 µM, 217 µM and 25.1.
For `O=S(=O)(c1ccncc1)N1CCCC2=C[C@H]3C[C@H](CN4CCCC[C@H]34)[C@@H]21`, in that order: 11.4 µM, 371 µM and 32.6.
On the same counts, the results for `COC(=O)c1ccc(S(=O)(=O)N2CCCC3=C[C@H]4C[C@H](CN5CCCC[C@H]45)[C@@H]32)cc1` are 80.6 µM, 283 µM and 3.51.
In the case of `COc1ccc(S(=O)(=O)N2CCCC3=C[C@H]4C[C@H](CN5CCCC[C@H]45)[C@@H]32)cc1OC`, in [1], the EC50 is 6.39 µM. Besides, the half-maximal cytotoxic concentration (CC50) (usually the concentration at which the toxic effect on the cells reaches its halfway point) at 72 h in [2] amounted to 215 µM. For the same compound, in [3], the selectivity ratio was 33.6.
As to `COc1ccc(Cl)cc1S(=O)(=O)N1CCCC2=C[C@H]3C[C@H](CN4CCCC[C@H]34)[C@@H]21`, in data set [1], the EC50 turned out to be 1.21 µM. In data set [2], this compound displayed a CC50 at 72 h of 92.9 µM. For the same compound, the selectivity ratio in data set [3] came to 76.8.
Regarding `N#Cc1ccc(S(=O)(=O)N2CCCC3=C[C@H]4C[C@H](CN5CCCC[C@H]45)[C@@H]32)cc1`, the maximum concentration (Cmax) (usually the peak of the concentration-time curve) in data set [4] stood at 410 nM. In data set [1], the EC50 came to 3.4 µM. Besides, in [5], the time to peak (Tmax) (usually the time at which the peak concentration occurs) stood at 0.33 h. In data set [2], the 50% cytotoxic concentration (CC50) at 72 h is 265 µM. For the same compound, the MRT (as a rule, the average time that molecules of a dose stay in the body) in data set [6] worked out at 1.82 h. The half-life (commonly the time in which the quantity being followed falls by half) in [7] was 1.97 h. In addition, the AUC(0-t) (usually the area under the concentration-time curve up to a stated or last time point) in [8] came to 0.77 µM·h. The selectivity ratio in data set [3] stood at 78.
As to `O=C(O)c1ccc(S(=O)(=O)N2CCCC3=C[C@H]4C[C@H](CN5CCCC[C@H]45)[C@@H]32)cc1`, in [1], the EC50 was > 167 µM. In addition, the 50% cytotoxic concentration (CC50) at 72 h in [2] is > 500 µM.
As to `COC(=O)c1ccccc1S(=O)(=O)N1CCCC2=C[C@H]3C[C@H](CN4CCCC[C@H]34)[C@@H]21`, the 50% effective concentration (EC50) in [1] stood at 8.2 µM. Besides, in data set [2], the half-maximal cytotoxic concentration (CC50) at 72 h came out at 269 µM. For the same compound, the selectivity ratio in data set [3] was found to be 32.8.
Turning to `O=C(O)c1ccc(C(=O)N2CCCC3=C[C@H]4C[C@H](CN5CCCC[C@H]45)[C@@H]32)cc1`, in [1], the half-maximal effective concentration (EC50) turned out to be 73.7 µM. The CC50 at 72 h in data set [2] was > 500 µM. Besides, the selectivity ratio in [3] was > 6.78.
For `COc1ccc(S(=O)(=O)N2CCCC3=C[C@H]4C[C@H](CN5CCCC[C@H]45)[C@@H]32)cc1C`, in that order: 4.89 µM, 73.2 µM and 15.
On the same counts, the results for `C1=C2CCCN(Cc3ccncc3)[C@H]2[C@@H]2C[C@H]1[C@H]1CCCCN1C2` are 97.9 µM, > 500 µM and > 5.11.
Consider `N#Cc1ccccc1S(=O)(=O)N1CCCC2=C[C@H]3C[C@H](CN4CCCC[C@H]34)[C@@H]21`, for which, in data set [1], the half-maximal effective concentration (EC50) is 3.32 µM. The compound also gave a CC50 at 72 h in data set [2] of 256 µM. Further, the selectivity ratio in [3] came to 77.1.
On the same counts, the results for `CC(=O)Nc1nc(C)c(S(=O)(=O)N2CCCC3=C[C@H]4C[C@H](CN5CCCC[C@H]45)[C@@H]32)s1` are 12.4 µM, 182 µM and 14.7.
On the same counts, the results for `COc1cc(C(=O)N2CCCC3=C[C@H]4C[C@H](CN5CCCC[C@H]45)[C@@H]32)cc(OC)c1OC` are 28.3 µM, 290 µM and 10.2.
For `COC(=O)c1ccc(C(=O)N2CCCC3=C[C@H]4C[C@H](CN5CCCC[C@H]45)[C@@H]32)cc1`, in that order: 11.6 µM, 271 µM and 23.4.
As to `O=S(=O)(c1cccc2cccnc12)N1CCCC2=C[C@H]3C[C@H](CN4CCCC[C@H]34)[C@@H]21`, the EC50 in data set [1] came to 7.35 µM. The compound also registered a CC50 at 72 h in [2] of 249 µM. Also, the selectivity ratio in [3] amounted to 33.8.
On the same counts, the results for `CC(C)Oc1ccc(S(=O)(=O)N2CCCC3=C[C@H]4C[C@H](CN5CCCC[C@H]45)[C@@H]32)cc1` are 1.81 µM, 34.8 µM and 19.2.
On to `CC(=O)Nc1ccc(S(=O)(=O)N2CCCC3=C[C@H]4C[C@H](CN5CCCC[C@H]45)[C@@H]32)cc1`, for which the 50% effective concentration (EC50) in data set [1] was determined as 54.7 µM. In addition, in data set [2], the CC50 at 72 h stood at 309 µM. Moreover, in data set [3], the selectivity ratio was 5.64.
For `O=C(O)c1ccccc1S(=O)(=O)N1CCCC2=C[C@H]3C[C@H](CN4CCCC[C@H]34)[C@@H]21`, in that order: 46.4 µM, > 500 µM and > 10.8.
`NCCS(=O)(=O)N1CCCC2=C[C@H]3C[C@H](CN4CCCC[C@H]34)[C@@H]21` yielded a Cmax in data set [4] of 1450 nM. Also, the EC50 in data set [1] was 2.72 µM. The median lethal dose (LD50) – broadly, the dose at which mortality reaches 50% – at 168 h in [9] stood at 750 mg/kg. The Tmax in data set [5] was 1.17 h. Besides, in [2], the 50% cytotoxic concentration (CC50) at 72 h amounted to 264 µM. For the same compound, the mean residence time (MRT) in data set [6] worked out at 5.96 h. Besides, the half-life in data set [7] is 10.2 h. In data set [8], this compound showed an AUC(0-t) of 7.78 µM·h. Also, the selectivity ratio in [3] is 97.2.
`O=S(=O)(c1cccc2nsnc12)N1CCCC2=C[C@H]3C[C@H](CN4CCCC[C@H]34)[C@@H]21`: the 50% effective concentration (EC50) in data set [1] is 5.5 µM. The half-maximal cytotoxic concentration (CC50) at 72 h in [2] is 314 µM. Further, the selectivity ratio in data set [3] was 57.2.
Regarding `C1=C2CCCN[C@H]2[C@@H]2C[C@H]1[C@H]1CCCCN1C2`, in [1], the 50% effective concentration (EC50) worked out at 4.32 µM. The same compound had a CC50 at 72 h in data set [2] of 235 µM. Besides, the selectivity ratio in data set [3] is 54.5.
On to `CC(=O)c1ccc(S(=O)(=O)N2CCCC3=C[C@H]4C[C@H](CN5CCCC[C@H]45)[C@@H]32)cc1`, for which the EC50 in data set [1] worked out at 5.57 µM. Besides, the midpoint of cytotoxicity in [2], the CC50 at 72 h, lay at 234 µM. In addition, the selectivity ratio in data set [3] amounted to 42.1.
For `CS(=O)(=O)c1ccc(S(=O)(=O)N2CCCC3=C[C@H]4C[C@H](CN5CCCC[C@H]45)[C@@H]32)cc1`, in that order: 18.7 µM, 186 µM and 9.97.
On the same counts, the results for `COc1ccc(C(=O)N2CCCC3=C[C@H]4C[C@H](CN5CCCC[C@H]45)[C@@H]32)cc1` are 62.5 µM, > 500 µM and > 8.
On the same counts, the results for `O=S(=O)(c1ccc2c(c1)OCCO2)N1CCCC2=C[C@H]3C[C@H](CN4CCCC[C@H]34)[C@@H]21` are 23.5 µM, > 500 µM and > 21.3.
Regarding `COc1ccc(S(=O)(=O)N2CCCC3=C[C@H]4C[C@H](CN5CCCC[C@H]45)[C@@H]32)cc1`, the concentration for a half-maximal effect (EC50) in data set [1] was 6.01 µM. The compound further gave a CC50 at 72 h in data set [2] of 102 µM. The selectivity ratio in [3] is 16.9.
For the compound `COc1ccc(CN2CCCC3=C[C@H]4C[C@H](CN5CCCC[C@H]45)[C@@H]32)cc1`, the EC50 in data set [1] amounted to 0.96 µM. This compound also came in with a half-maximal cytotoxic concentration (CC50) at 72 h in data set [2] of 83.1 µM. Further, the selectivity ratio in data set [3] worked out at 86.6.
On the same counts, the results for `O=C1c2ccccc2C(=O)N1CCS(=O)(=O)N1CCCC2=C[C@H]3C[C@H](CN4CCCC[C@H]34)[C@@H]21` are 68.6 µM, > 500 µM and > 7.29.
For the compound `COc1ccc2c(O[C@@H]3C[C@H]4C(=O)N[C@]5(C(=O)NS(=O)(=O)C6CC6)C[C@H]5/C=C/CCCCN(C)C(=O)[C@@H]4C3)cc(-c3nc(C(C)C)cs3)nc2c1C`, the inhibition result in data set [10] and in [11] was “inactive” throughout.
For the compound `Nc1ccc(S(=O)(=O)N2CCCC3=C[C@H]4C[C@H](CN5CCCC[C@H]45)[C@@H]32)cc1`, in [1], the EC50 amounted to 10.7 µM. In addition, it took 288 µM to reach half-maximal cytotoxicity in data set [2] (CC50 at 72 h). Besides, the selectivity ratio in data set [3] stood at 26.9.
As to `Cc1nc(N)sc1S(=O)(=O)N1CCCC2=C[C@H]3C[C@H](CN4CCCC[C@H]34)[C@@H]21`, the concentration for a half-maximal effect (EC50) in data set [1] was found to be 6.03 µM. In data set [2], it took 209 µM to reach half-maximal cytotoxicity (CC50 at 72 h). In [3], the selectivity ratio is 34.7.
For `O=[N+]([O-])c1ccc(CN2CCCC3=C[C@H]4C[C@H](CN5CCCC[C@H]45)[C@@H]32)cc1`, in that order: 3.56 µM, 94.4 µM and 26.5.
Regarding `COc1ccccc1CN1CCCC2=C[C@H]3C[C@H](CN4CCCC[C@H]34)[C@@H]21`, in data set [1], the EC50 is 6.78 µM. The compound also displayed a CC50 at 72 h in data set [2] of 69.3 µM. Further, the selectivity ratio in [3] is 10.2.
